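A five-concentration, 48-hour dose response in 96-well plates underlies each endpoint, interpolated linearly between surrounding concentrations. TGI: total growth inhibition.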

For orientation: TGI means the concentration giving total growth inhibition. High values mean less potent growth arrest, low ones more potent growth arrest.

Holding throughout (assay): DTP human tumour cell line panel, 48 h
In test [1] the test system is A549 NSCLC.
The test system of test [2] is HCC-2998 colon.
Test [3] deals with HCT-15 colon.
Test [4] deals with HT29 colon.
Test [5] deals with MDA-MB-435.
The subject of test [6] is MDA-N.
Test [7] has as its system OVCAR-4 ovarian.
The subject of test [8] is OVCAR-5 ovarian.
The subject of test [9] is OVCAR-8 ovarian.
The subject of test [10] is SF-295 CNS.
Test [11] deals with SN12C renal.
The test system of test [12] is UO-31 renal.
In test [13] the test system is CAKI-1 renal.
The subject of test [14] is SR leukemia.
For test [15], the system named is HS 578T breast.

In the case of `CC1(C)CC(=O)C(/C=N/c2nc(-c3ccccc3)cs2)=C(O)C1`, the TGI in [1] was > 100 µM; in test [2], > 100 µM; in test [3], 63.7 µM; in [4] it was > 100 µM; in test [5], 73.6 µM; in test [6], > 100 µM. The TGI in test [7], in test [8], in test [9], in test [10], in test [11] and in test [12] was > 100 µM each time.
For `COC(=O)C(=Cc1cc(OC)c(OC)c(OC)c1-c1cc2c(cc1C(C)=O)OCO2)C(=O)OC`, the TGI was 165 µM in test [1]; 108 µM in [13]; 70.4 µM in test [2]; 50.2 µM in [3]; 77 µM in test [4]; 74.1 µM in [8]. The total growth inhibition concentration (TGI) in test [9] was > 211 µM; in [10] it was 102 µM; in [11], 58.8 µM; in test [14], > 211 µM.
As to `O=C(Nc1ccc(Cl)cc1Cl)C(=O)C(C(=O)c1ccncc1)C1OC(=O)c2ccccc21` (centres undefined), the TGI in [1], in [13], in test [2], in [3], in [4] and in test [7] was > 100 µM each time. Besides, the TGI in test [8], in test [9], in [10], in [11], in [14] and in [12] was > 100 µM in each case.
Turning to `C=C1CCC23CC(CC[C@@H]2[C@@]12C[C@@H](c1ccoc1)OC2=O)OC3=O` (some centres undefined), the TGI in test [1], in test [13], in test [2], in test [3], in test [4] and in test [7] was > 100 µM in each case. Besides, the TGI in test [8], in [9], in test [10], in [11] and in [12] was > 100 µM each time.
As for `CSC1=N/C(=C\c2ccccc2)C(=O)N1CN1CCCCC1`, the total growth inhibition concentration (TGI) in test [1] is > 100 µM; in [15], > 100 µM; in test [4], 90.7 µM; in test [5], > 100 µM; in [6], > 100 µM; in [7], 56.4 µM. The TGI in test [8], in test [9], in [10], in test [11], in test [14] and in [12] was > 100 µM each time.
As for `COc1ccc(CCN2CCN(CCc3ccc(OC)cc3)CC2)cc1`, the TGI in test [1], in [13], in test [2], in [3], in test [15] and in [4] was > 100 µM each time. In addition, the TGI in [5], in test [6], in test [7], in test [8], in test [9] and in test [10] was > 100 µM throughout. The TGI in test [11] and in [12] was > 100 µM in each case.
Regarding `CN(C)/C=N/S(=O)(=O)c1nn2c(C=O)c(-c3ccc(Cl)cc3)nc2s1`, the TGI was 20.2 µM in test [1]; 2.58 µM in [13]; 9.75 µM in [2]; 5.63 µM in test [3]; > 22 µM in test [15]; 0.552 µM in [4]. In addition, the concentration for total growth inhibition (TGI) turned out to be 7.92 µM in test [5]; 3.58 µM in test [7]; 5.55 µM in test [8]; 3.2 µM in [9]; 28.2 µM in [10]; 5.94 µM in test [11]. Besides, the TGI in [14] came out at 3.4 µM; in test [12], 2.18 µM.
`CCCCCCCCCCN(CCCCCCCCCC)C(=O)COc1c2cc(C(C)(C)C)cc1Cc1cc(C(C)(C)C)cc(c1OCC(=O)N(CCCCCCCCCC)CCCCCCCCCC)Cc1cc(C(C)(C)C)cc(c1OCC(=O)N(CCCCCCCCCC)CCCCCCCCCC)Cc1cc(C(C)(C)C)cc(c1OCC(=O)N(CCCCCCCCCC)CCCCCCCCCC)C2`: the TGI worked out at 30.4 µM in test [1]; 22.3 µM in test [2]; 21.7 µM in test [3]; 12.3 µM in [4]; 25.6 µM in test [5]; 24.9 µM in [6]. The TGI in test [7] amounted to 22.4 µM; in [8] it was 26.1 µM; in test [9], 16.6 µM; in test [10] it was 21.7 µM; in [11], 26.2 µM; in test [14], 6.06 µM. In test [12], the TGI stood at 37.1 µM.
On to `COc1cccc(/C=C2\C(=O)N(C(=O)c3ccc(NC(C)=O)cc3)N=C2C)c1`, for which the TGI in test [1], in test [13], in test [2], in test [3], in test [4] and in [7] was > 100 µM in each case. Moreover, the TGI in [8], in [9], in [10], in [11] and in [12] was > 100 µM throughout.
Turning to `N#Cc1c(-c2ccccc2)cc(Nc2cccc(C(F)(F)F)c2)n2c1nc1ccccc12`, the TGI in test [13] turned out to be 13.1 µM; in test [3], 10.2 µM; in test [4], 4.6 µM; in test [5] it was 17.1 µM; in test [6] it was 10.3 µM; in test [7], 22.2 µM. The total growth inhibition concentration (TGI) in test [8] was determined as 10.7 µM; in test [9] it was 10.3 µM; in [10], 12.6 µM; in test [11], 4.34 µM.
For `CCO/N=C(/N)c1ncn(Cc2ccccc2)c1NCC(OCC)OCC`, the TGI in test [1], in test [13], in test [2], in test [3], in test [4] and in [8] was > 100 µM throughout. For the same molecule, the TGI in test [9], in [10], in test [11] and in test [12] was > 100 µM in each case.

The values are drawn from PubChem BioAssay (NCI).
